Values joined by “and” are separate entries in the source; they are usually repeats but may differ in a detail not shown here. Identical values can stand only once.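 Where inhibition never reached the appropriate level, the endpoint shown equals the highest concentration tested. Otherwise, values were interpolated linearly from a five-concentration, 48-hour dose response in 96-well plates. GI50 marks 50% less growth. TGI denotes the concentration required for complete inhibition of growth.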
Assays:
Assay in all cases: NCI tumour cell line growth inhibition, 48 h
[1] = tested on: DMS 114 small cell lung
[2] = tested on: HCT-116 colon
[3] = tested on: CCRF-CEM leukemia
[4] = tested on: RXF-631 renal
[5] = tested on: SF-295 CNS
[6] = tested on: HCT-15 colon
[7] = tested on: SK-OV-3 ovarian
[8] = tested on: HOP-18 NSCLC
[9] = tested on: SNB-75 CNS
[10] = tested on: M14 melanoma
[11] = tested on: UACC-62 melanoma
[12] = tested on: A549 NSCLC
[13] = tested on: OVCAR-5 ovarian
[14] = tested on: COLO 205 colon
[15] = tested on: OVCAR-8 ovarian
[16] = tested on: XF 498 CNS
[17] = tested on: HOP-92 NSCLC
[18] = tested on: KM12 colon
[19] = tested on: UACC-257 melanoma
[20] = tested on: CAKI-1 renal
[21] = tested on: DLD-1 colon
[22] = tested on: SN12C renal
[23] = tested on: MALME-3M melanoma
[24] = tested on: HOP-62 NSCLC
[25] = tested on: RPMI-8226 leukemia
[26] = tested on: NCI-H23 lung
[27] = tested on: MOLT-4 leukemia
[28] = tested on: KM20L2 colon
[29] = tested on: SW-620 colon
[30] = tested on: SF-539 CNS
[31] = tested on: LOX IMVI melanoma
[32] = tested on: SNB-19 CNS
[33] = tested on: A498 renal
[34] = tested on: OVCAR-4 ovarian
[35] = tested on: LXFL 529 NSCLC
[36] = tested on: 786-0 renal
[37] = tested on: SR leukemia
[38] = tested on: U251 CNS
[39] = tested on: SK-MEL-28 melanoma
[40] = tested on: NCI-H226 lung
[41] = tested on: UO-31 renal
[42] = tested on: OVCAR-3 ovarian
[43] = tested on: NCI-H522 lung
[44] = tested on: ACHN renal
[45] = tested on: SNB-78 CNS
[46] = tested on: HL-60(TB) leukemia
[47] = tested on: EKVX NSCLC
[48] = tested on: IGROV1 ovarian
[49] = tested on: TK-10 renal
[50] = tested on: RXF 393 renal
[51] = tested on: NCI-H460 lung
[52] = tested on: SK-MEL-5 melanoma
[53] = tested on: HCC-2998 colon
[54] = tested on: HT29 colon
[55] = tested on: K-562 leukemia
[56] = tested on: M19-MEL melanoma
[57] = tested on: SF-268 CNS
[58] = tested on: DMS 273 small cell lung
[59] = tested on: SK-MEL-2 melanoma

## O=C(Nc1nc(=S)[nH][nH]1)C(=O)C(c1cnc2ccc([N+](=O)[O-])cc2n1)[N+](=O)[O-] (configuration not stated)
[1]
  TGI: > 100 µM
[2]
  TGI: > 100 µM
[3]
  TGI: > 100 µM
[4]
  TGI: > 100 µM
[5]
  TGI: > 100 µM
[6]
  TGI: > 100 µM
[7]
  TGI: > 100 µM
[8]
  TGI: > 100 µM
[9]
  TGI: > 100 µM
[10]
  TGI: > 100 µM
[11]
  TGI: > 100 µM
[12]
  TGI: > 100 µM
[13]
  TGI: > 100 µM
[14]
  TGI: > 100 µM
[15]
  TGI: > 100 µM
[16]
  TGI: > 100 µM
[17]
  TGI: > 100 µM
[18]
  TGI: > 100 µM
[19]
  TGI: > 100 µM
[20]
  TGI: > 100 µM
[21]
  TGI: > 100 µM
[22]
  TGI: > 100 µM
[23]
  TGI: > 100 µM
[24]
  TGI: > 100 µM
[25]
  TGI: > 100 µM
[26]
  TGI: > 100 µM
[27]
  TGI: > 100 µM
[28]
  TGI: > 100 µM
[29]
  TGI: > 100 µM
[30]
  TGI: > 100 µM
[31]
  TGI: > 100 µM
[32]
  TGI: > 100 µM
[33]
  TGI: > 100 µM
[34]
  TGI: > 100 µM
[35]
  TGI: > 100 µM
[36]
  TGI: > 100 µM
[37]
  TGI: > 100 µM
[38]
  TGI: > 100 µM
[39]
  TGI: > 100 µM
[40]
  TGI: > 100 µM
[41]
  TGI: > 100 µM
[42]
  TGI: > 100 µM
[43]
  TGI: > 100 µM
[44]
  TGI: > 100 µM
[45]
  TGI: > 100 µM
[46]
  TGI: > 100 µM
[47]
  TGI: > 100 µM
[48]
  TGI: > 100 µM
[49]
  TGI: > 100 µM
[50]
  TGI: > 100 µM
[51]
  TGI: > 100 µM
[52]
  TGI: > 100 µM
[53]
  TGI: > 100 µM
[54]
  TGI: > 100 µM
[55]
  TGI: > 100 µM
[56]
  TGI: > 100 µM
[57]
  TGI: > 100 µM

## CCCCCCCCCCCCCC(=O)O[C@H]1CC[C@H](NC(=O)[C@H](OC)[C@H](O)[C@@H](O)[C@H](O)/C=C/C(C)C)C(=O)N(C)C1
[1]
  TGI: 0.817 µM
[2]
  TGI: 15 µM and 2.46 µM
[3]
  GI50: 0.00238 µM
  TGI: 15 µM and 4.85 µM
[4]
  GI50: 0.00238 µM
  TGI: 15 µM and 4.07 µM
[5]
  GI50: 0.00238 µM
  TGI: 15 µM and 3.03 µM
[6]
  GI50: 0.23 µM
  TGI: 15 µM and > 23.8 µM
[7]
  GI50: 0.0194 µM
  TGI: 15 µM and > 23.8 µM
[8]
  GI50: 11.3 µM
  TGI: 15 µM and > 23.8 µM
[9]
  GI50: 0.0217 µM
  TGI: 15 µM and > 23.8 µM
[10]
  GI50: 0.00238 µM
  TGI: 1.75 µM and 0.413 µM
[11]
  GI50: 0.00238 µM
  TGI: 0.0655 µM and 0.00779 µM
[12]
  GI50: 0.00238 µM
  TGI: 15 µM and 4.49 µM
[13]
  GI50: > 23.8 µM
  TGI: 15 µM and > 23.8 µM
[15]
  GI50: 0.00238 µM
  TGI: 15 µM and 3.59 µM
[16]
  GI50: 0.0043 µM
[17]
  TGI: 0.0541 µM
[18]
  GI50: 0.00238 µM
  TGI: 15 µM and 2.96 µM
[19]
  GI50: 0.00238 µM
  TGI: 15 µM and 13 µM
[20]
  TGI: 0.668 µM
[21]
  GI50: 0.00278 µM
  TGI: 15 µM and > 23.8 µM
[22]
  GI50: 0.00238 µM
  TGI: 15 µM and 4.84 µM
[58]
  TGI: 0.00403 µM
[23]
  GI50: 0.00717 µM
  TGI: 15 µM and > 23.8 µM
[24]
  GI50: > 23.8 µM
  TGI: 15 µM and > 23.8 µM
[25]
  GI50: 0.00392 µM
  TGI: 15 µM and 8.02 µM
[26]
  GI50: 0.00328 µM
  TGI: 0.15 µM and 0.056 µM
[27]
  GI50: 0.00238 µM
  TGI: 15 µM and 5.24 µM
[28]
  GI50: < 0.0015 µM
  TGI: 15 µM and 3.8 µM
[29]
  GI50: 0.00238 µM
  TGI: 15 µM and 5.48 µM
[30]
  GI50: 0.0126 µM
  TGI: 15 µM and > 23.8 µM
[31]
  TGI: 15 µM and 3.34 µM
[32]
  GI50: 0.0093 µM
  TGI: 15 µM and > 23.8 µM
[33]
  GI50: 0.453 µM
  TGI: > 23.8 µM
[34]
  GI50: 0.00391 µM
  TGI: 15 µM and 11.1 µM
[35]
  GI50: 0.00238 µM
  TGI: 15 µM and 3.94 µM
[36]
  GI50: 0.00238 µM
  TGI: 15 µM and 3.18 µM
[37]
  TGI: 2.46 µM
[38]
  GI50: < 0.0015 µM
  TGI: 15 µM and 3.06 µM
[39]
  GI50: 0.00238 µM
  TGI: 15 µM and 3.57 µM
[40]
  GI50: 0.544 µM
[41]
  GI50: 0.0283 µM
  TGI: 15 µM and 8.93 µM
[42]
  GI50: 0.0139 µM
  TGI: 15 µM and > 23.8 µM
[43]
  GI50: 0.00689 µM
  TGI: 0.269 µM and 0.168 µM
[44]
  GI50: 0.0306 µM
  TGI: 15 µM and > 23.8 µM
[45]
  TGI: 15 µM
[46]
  GI50: 0.00238 µM
  TGI: 2.43 µM and 3.71 µM
[47]
  GI50: 1.36 µM
  TGI: 15 µM and > 23.8 µM
[48]
  GI50: 0.00377 µM
  TGI: 15 µM and > 23.8 µM
[49]
  GI50: 0.05 µM
  TGI: 15 µM and > 23.8 µM
[50]
  GI50: 0.00238 µM
[51]
  GI50: 0.00238 µM
  TGI: 0.371 µM and 3.01 µM
[59]
  GI50: 0.0156 µM
  TGI: 15 µM and 6.33 µM
[52]
  GI50: 0.00347 µM
  TGI: 0.337 µM and 0.0726 µM
[53]
  GI50: 0.00238 µM
  TGI: 0.63 µM and 4.25 µM
[54]
  GI50: 0.00238 µM
  TGI: 15 µM and 3.07 µM
[55]
  GI50: 0.00238 µM
  TGI: 15 µM and > 23.8 µM
[56]
  GI50: 0.00238 µM
  TGI: 15 µM and 3.89 µM
[57]
  GI50: 0.0235 µM
  TGI: 15 µM and 2.38 µM

— PubChem BioAssay (NCI)
